# In the SangsterLogP compilation:
row,SMILES,logP
1,NS(=O)(=O)c1cc(C2(O)NC(=O)c3ccccc32)ccc1Cl (centres undefined),1.17
2,NC(=O)NN=Cc1ccc([N+](=O)[O-])o1,0.74
3,Cc1cncc(C)c1,1.74
4,NCc1ccccc1,1.1
5,CN1CCOC(c2ccccc2)c2ccccc2C1 (centres undefined),3.02
6,Nc1ccccn1,0.4
7,Cc1cc(C)cc(N)c1,2.09
8,Cc1cccc(CN)c1,1.82
9,CC(=O)O[C@]1(C(=O)CO)CC[C@H]2[C@@H]3CCC4=CC(=O)CC[C@]4(C)[C@H]3[C@@H](O)C[C@@]21C,2.17
10,Cc1ccccc1CN,1.62
11,CC(N)c1ccccc1 (centres undefined),1.45
12,Cc1ccnc(C)c1,1.58
13,CCCCNc1ccc(C(=O)OCCN(C)C)cc1,3.46
14,C=C[C@H]1CN2CC[C@H]1C[C@@H]2[C@@H](O)c1ccnc2ccc(OC)cc12,2.77
